Columns and labels:
Tankyrase 1/2 = target: T1, Tankyrase 1/2 (Homo sapiens, UniProt Q9H2K2+O95271); test: Inhibition of tankyrase in WNT3a-stimulated human HEK293 cells by luciferase reporter gene assay; format: cell-based
T1 sequence (Q9H2K2 whole entry): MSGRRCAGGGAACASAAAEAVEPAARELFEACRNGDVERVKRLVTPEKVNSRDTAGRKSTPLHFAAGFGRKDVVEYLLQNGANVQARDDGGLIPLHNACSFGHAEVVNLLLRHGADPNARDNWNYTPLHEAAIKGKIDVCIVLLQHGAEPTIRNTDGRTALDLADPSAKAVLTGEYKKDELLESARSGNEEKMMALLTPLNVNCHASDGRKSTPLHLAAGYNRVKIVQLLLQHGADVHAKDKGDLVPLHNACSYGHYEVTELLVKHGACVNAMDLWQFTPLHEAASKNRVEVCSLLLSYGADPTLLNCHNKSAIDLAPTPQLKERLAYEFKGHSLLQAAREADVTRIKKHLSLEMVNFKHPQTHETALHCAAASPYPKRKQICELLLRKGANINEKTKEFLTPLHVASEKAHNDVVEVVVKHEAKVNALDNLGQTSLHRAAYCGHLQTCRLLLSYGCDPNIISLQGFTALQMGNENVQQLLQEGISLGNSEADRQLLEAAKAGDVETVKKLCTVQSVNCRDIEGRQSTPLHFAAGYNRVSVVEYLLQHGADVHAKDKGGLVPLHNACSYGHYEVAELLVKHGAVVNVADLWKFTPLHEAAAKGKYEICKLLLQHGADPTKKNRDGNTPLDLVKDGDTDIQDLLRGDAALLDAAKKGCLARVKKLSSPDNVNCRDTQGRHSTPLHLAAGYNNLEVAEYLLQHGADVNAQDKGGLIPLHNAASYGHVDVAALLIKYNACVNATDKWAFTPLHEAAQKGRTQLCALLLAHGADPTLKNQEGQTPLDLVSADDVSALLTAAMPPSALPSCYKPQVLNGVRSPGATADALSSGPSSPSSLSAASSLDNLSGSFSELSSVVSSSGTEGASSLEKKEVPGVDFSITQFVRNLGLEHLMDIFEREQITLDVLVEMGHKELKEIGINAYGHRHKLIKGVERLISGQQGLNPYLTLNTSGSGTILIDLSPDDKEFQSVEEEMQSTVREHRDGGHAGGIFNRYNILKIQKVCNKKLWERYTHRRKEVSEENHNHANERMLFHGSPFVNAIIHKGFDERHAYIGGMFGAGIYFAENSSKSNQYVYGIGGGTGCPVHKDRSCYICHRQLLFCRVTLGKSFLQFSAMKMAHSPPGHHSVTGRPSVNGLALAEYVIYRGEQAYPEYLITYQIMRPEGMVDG
T1 sequence (O95271 whole entry): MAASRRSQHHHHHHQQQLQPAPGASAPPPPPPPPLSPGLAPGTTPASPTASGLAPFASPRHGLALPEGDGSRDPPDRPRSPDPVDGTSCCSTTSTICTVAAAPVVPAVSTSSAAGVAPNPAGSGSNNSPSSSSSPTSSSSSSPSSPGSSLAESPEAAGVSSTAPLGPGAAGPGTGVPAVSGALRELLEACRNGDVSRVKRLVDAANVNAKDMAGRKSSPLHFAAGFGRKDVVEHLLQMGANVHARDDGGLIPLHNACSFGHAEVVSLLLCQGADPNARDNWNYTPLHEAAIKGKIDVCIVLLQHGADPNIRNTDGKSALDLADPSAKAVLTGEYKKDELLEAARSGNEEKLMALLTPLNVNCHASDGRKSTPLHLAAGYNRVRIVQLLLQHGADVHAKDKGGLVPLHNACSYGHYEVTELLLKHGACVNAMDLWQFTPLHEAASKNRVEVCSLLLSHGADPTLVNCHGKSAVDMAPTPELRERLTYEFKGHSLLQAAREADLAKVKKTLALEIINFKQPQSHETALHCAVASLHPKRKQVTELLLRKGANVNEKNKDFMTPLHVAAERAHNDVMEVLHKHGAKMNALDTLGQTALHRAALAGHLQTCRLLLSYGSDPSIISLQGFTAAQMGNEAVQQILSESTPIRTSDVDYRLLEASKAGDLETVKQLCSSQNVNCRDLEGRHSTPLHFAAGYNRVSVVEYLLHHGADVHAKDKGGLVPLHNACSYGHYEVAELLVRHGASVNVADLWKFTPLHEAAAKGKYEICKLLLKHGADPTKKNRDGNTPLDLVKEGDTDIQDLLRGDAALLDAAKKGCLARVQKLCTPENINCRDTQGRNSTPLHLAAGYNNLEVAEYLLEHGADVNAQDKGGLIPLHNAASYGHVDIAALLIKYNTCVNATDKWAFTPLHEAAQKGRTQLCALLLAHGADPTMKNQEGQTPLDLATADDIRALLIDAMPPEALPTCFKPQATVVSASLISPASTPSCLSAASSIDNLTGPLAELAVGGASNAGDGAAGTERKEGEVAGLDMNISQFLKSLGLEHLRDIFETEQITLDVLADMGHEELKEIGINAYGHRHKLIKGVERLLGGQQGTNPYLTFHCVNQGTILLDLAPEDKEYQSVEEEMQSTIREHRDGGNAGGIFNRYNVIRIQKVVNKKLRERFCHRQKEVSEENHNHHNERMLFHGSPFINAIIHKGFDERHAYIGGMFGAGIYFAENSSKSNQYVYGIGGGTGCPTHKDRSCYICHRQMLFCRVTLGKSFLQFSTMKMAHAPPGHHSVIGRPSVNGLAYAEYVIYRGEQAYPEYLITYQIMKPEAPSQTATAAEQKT

[1] = target: T2, Protein mono-ADP-ribosyltransferase PARP15 (Homo sapiens, UniProt Q460N3); test: Inhibition of human ARTD7 by fluorescence analysis
T2 sequence (Q460N3 whole entry): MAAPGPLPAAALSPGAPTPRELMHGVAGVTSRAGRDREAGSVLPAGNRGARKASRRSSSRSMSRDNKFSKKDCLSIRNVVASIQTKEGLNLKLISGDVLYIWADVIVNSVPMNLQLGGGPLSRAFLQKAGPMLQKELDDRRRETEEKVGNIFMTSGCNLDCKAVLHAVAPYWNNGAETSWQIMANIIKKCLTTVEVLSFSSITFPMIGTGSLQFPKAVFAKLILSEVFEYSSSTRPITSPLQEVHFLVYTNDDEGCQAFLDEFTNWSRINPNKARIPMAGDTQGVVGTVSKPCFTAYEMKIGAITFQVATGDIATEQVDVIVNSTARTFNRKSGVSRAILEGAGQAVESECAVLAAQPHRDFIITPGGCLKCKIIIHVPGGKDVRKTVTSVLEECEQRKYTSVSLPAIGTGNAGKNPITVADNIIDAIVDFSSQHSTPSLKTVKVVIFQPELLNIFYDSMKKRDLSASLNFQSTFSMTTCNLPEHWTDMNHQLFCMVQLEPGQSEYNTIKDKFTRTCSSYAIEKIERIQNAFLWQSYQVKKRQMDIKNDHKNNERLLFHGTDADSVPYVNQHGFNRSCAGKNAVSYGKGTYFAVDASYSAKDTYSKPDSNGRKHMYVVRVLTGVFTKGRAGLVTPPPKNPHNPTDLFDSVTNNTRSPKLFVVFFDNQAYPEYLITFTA

IC50 (Tankyrase 1/2): 0.36 µM
IC50 [1]: > 10 µM
SMILES: COc1ccc(C2(CNC(=O)c3ccc(NC(=O)c4ccco4)cc3Cl)CCOCC2)cc1

Source: ChEMBL document CHEMBL3751785, “Development and structural analysis of adenosine site binding tankyrase inhibitors” (Bioorg Med Chem Lett, 2016)
